Experiment [1] has as its target T1, adenosine A2A receptor (hA2AR) (Homo sapiens, UniProt P29274).
T1 construct: gene ADORA2A; membrane homogenates of stably transfected CHO-K1 cells
Kind of experiment: radioligand displacement with [3H]ZM241385. The class given is binding. For orientation: Loss of bound radioactivity is the signal in a displacement assay; it reports binding, not function.

In experiment [2] the target is T2, adenosine A1 receptor (hA1R) (Homo sapiens, UniProt P30542).
T2 construct: gene ADORA1; membrane homogenates of stably transfected CHO-K1 cells
T2 sequence (P30542 1-326): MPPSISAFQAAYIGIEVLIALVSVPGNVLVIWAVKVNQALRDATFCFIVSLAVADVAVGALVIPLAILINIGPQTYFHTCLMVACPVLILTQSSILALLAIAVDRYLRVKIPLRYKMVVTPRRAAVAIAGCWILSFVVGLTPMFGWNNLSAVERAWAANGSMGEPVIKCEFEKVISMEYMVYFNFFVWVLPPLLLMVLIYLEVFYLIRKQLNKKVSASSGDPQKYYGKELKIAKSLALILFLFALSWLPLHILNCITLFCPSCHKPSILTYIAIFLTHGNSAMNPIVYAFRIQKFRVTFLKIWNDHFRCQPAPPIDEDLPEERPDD
Kind of experiment: radioligand displacement with [3H]DPCPX. The class given is binding.

SMILES strings stand for the structures.

T1 sequence (P29274 whole entry): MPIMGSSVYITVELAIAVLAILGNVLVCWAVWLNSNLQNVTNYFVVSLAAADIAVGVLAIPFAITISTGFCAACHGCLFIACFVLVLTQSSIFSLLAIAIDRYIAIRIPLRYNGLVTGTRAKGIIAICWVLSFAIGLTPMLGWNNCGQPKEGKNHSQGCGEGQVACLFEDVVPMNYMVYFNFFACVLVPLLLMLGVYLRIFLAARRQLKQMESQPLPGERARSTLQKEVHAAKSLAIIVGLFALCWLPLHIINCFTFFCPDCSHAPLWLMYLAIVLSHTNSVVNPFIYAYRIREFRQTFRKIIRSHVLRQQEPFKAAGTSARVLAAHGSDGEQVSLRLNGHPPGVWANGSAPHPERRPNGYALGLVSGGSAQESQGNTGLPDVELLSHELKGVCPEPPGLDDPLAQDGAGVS

A word on the Ki: it is a measure of affinity in units of concentration, obtained from inhibition or displacement. A high value points to lower affinity. Consider `Nc1nc2c(cnn2CCCc2ccc(OCCF)cc2)c2nc(-c3ccco3)nn12` [FESCH], for which the Ki in experiment [1] stood at 0.6 ± 0.1 nM; in experiment [2], 203 ± 40 nM.

The values above are taken from PMC7180622, “PET Imaging of the Adenosine A2A Receptor in the Rotenone-Based Mouse Model of Parkinson’s Disease with [^18F]FESCH Synthesized by a Simplified Two-Step One-Pot Radiolabeling Strategy” (Molecules, 2020).
